Assay results from patent US9718803B2 (AMGEN INC., priority 2010, dated 2017).
Like-named read-outs stand apart in the source and are kept apart here.

Biological target: PDE10 enzyme
Experiment: MPDE10A7 enzyme activity and inhibition (IMAP TR-FRET assay)
Type: biochemical
Method: MPDE10A7 Enzyme Activity and Inhibition
Enzyme Activity. An IMAP TR-FRET assay was used to analyze the enzyme activity (Molecular Devices Corp., Sunnyvale Calif.). 5 L of serial diluted PDE10A (BPS Bioscience, San Diego, Calif.) or tissue homogenate was incubated with equal volumes of diluted fluorescein labeled cAMP or cGMP for 60 min in 384-well polystyrene assay plates (Corning, Corning, N.Y.) at room temperature. After incubation, the reaction was stopped by adding 60 L of diluted binding reagents and was incubated for 3 hours to overnight at room temperature. The plates were read on an Envision (Perkin Elmer, Waltham, Mass.) for time resolved fluorescence resonance energy transfer. The data were analyzed with GraphPad Prism (La Jolla, Calif.).
Enzyme Inhibition. To check the inhibition profile, 5 μL of serial diluted compounds were incubated with 5 μL of diluted PDE10 enzyme (BPS Bioscience, San Diego, Calif.) or tissue homogenate in a 384-well polystyrene assay plate (Corning, Corning, N.Y.) for 30 min at room temperature. […] The reaction was stopped by adding 60 μL of diluted binding reagents and plates were read on an Envision (Perkin Elmer, Waltham, Mass.) for time resolved fluorescence resonance energy transfer. The data were analyzed with GraphPad Prism (La Jolla, Calif.).

SMILES | IC50 (read-out: IC50) [nM] | IC50 (running text of examples, fluorescein labeled cAMP or cGMP substrate, read-out: PDE10 IC50) [nM]
N#Cc1ccc(-c2nccnc2C2CN(c3ccc4ccccc4n3)C2)cc1 [Example 5.8, 4-(3-(1-(quinolin-2-yl)azetidin-3-yl)pyrazin-2-yl)benzonitrile] | 3 | –
O=C(O)c1cccc(-c2nccnc2C2CN(c3ccc4ccccc4n3)C2)c1 [Example 33.1, Lithium 3-(3-(1-(Quinolin-2-Yl)Azetidin-3-Yl)Pyrazin-2-Yl)Benzoate] | – | 1.6
